# Target: T1, human oxytocin receptor (Homo sapiens, UniProt P30559)
# T1 construct: host or cells: CHO cells, stably transfected (pcDNA3.1 vector)
# T1 sequence (P30559 1-389): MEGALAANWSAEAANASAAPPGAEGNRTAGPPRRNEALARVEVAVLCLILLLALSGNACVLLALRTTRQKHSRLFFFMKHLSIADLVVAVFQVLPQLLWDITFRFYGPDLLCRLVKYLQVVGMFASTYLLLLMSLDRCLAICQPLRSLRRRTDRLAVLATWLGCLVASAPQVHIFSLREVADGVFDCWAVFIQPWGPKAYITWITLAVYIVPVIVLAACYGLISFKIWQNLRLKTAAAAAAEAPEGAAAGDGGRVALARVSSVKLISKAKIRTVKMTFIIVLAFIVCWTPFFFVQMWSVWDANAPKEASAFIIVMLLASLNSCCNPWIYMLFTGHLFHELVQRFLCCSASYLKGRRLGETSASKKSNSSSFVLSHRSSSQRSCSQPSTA
# Test: Oxytocin binding in CHO cell membranes expressing human oxytocin receptors ([3H]oxytocin radioligand binding)
# Details: for inhibition at 0.1 µM: 100 nM, read-out: OT % inhibition @ 100 nM; for IC50: value in parentheses, read-out: OT (IC50)
# Method in brief: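 CHO membranes expressing human oxytocin receptor (25–50 μg protein/well) incubated 60 min at room temperature with [3H]oxytocin in Tris-HCl pH 7.4 buffer with MgCl2, BSA and protease inhibitors. Filtration and scintillation counting; reported as % inhibition at a stated concentration or nM IC50.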
inhibition at 0.1 µM [%],IC50 [nM],Compound
46,–,"COc1ccccc1-c1ccc(C(=O)N2Cc3ccc(C(=O)N4CCN(c5ccccn5)CC4)n3Cc3ccccc32)cc1OC [Example 84, {10-[(2,2′-Dimethoxy-[1,1′-biphenyl]-4-yl)carbonyl]-10,11-dihydro-5H-pyrrolo[2,1-c][1,4]benzodiazepin-3-yl}[4-(2-pyridinyl)-1-piperazinyl]methanone]"
28,–,"COc1cc(C(=O)N2Cc3ccc(C(=O)NCc4ccncc4)n3Cc3ccccc32)ccc1-c1cccc2ccccc12 [Example 96, 10-[3-Methoxy-4-(naphthalen-1-yl)benzoyl]-N-(4-pyridinylmethyl)-10,11-dihydro-5H-pyrrolo[2,1-c][1,4]benzodiazepine-3-carboxamide]"
44,–,"COc1cccc(-c2ccc(C(=O)N3Cc4ccc(C(=O)NCc5ccncc5)n4Cc4ccccc43)cc2C)c1 [Example 90, 10-[(3′-Methoxy-2-methyl-[1,1′-biphenyl]-4-yl)carbonyl]-N-(4-pyridinylmethyl)-10,11-dihydro-5H-pyrrolo[2,1-c][1,4]benzodiazepine-3-carboxamide]"
59,–,"COc1ccccc1-c1ccc(C(=O)N2Cc3ccc(C(=O)N4CCN(c5ccccn5)CC4)n3Cc3ccccc32)cc1 [Example 78, {10-[(2′-Methoxy-[1,1′-biphenyl]-4-yl)carbonyl]-10,11-dihydro-5H-pyrrolo[2,1-c][1,4]benzodiazepin-3-yl}[4-(2-pyridinyl)-1-piperazinyl]methanone]"
–,10.2,"COc1cc(-c2ccccc2C(F)(F)F)c(Cl)cc1C(=O)N1Cc2ccc(C(=O)N(C)Cc3cccnc3)n2Cc2ccccc21 [Example 5, 10-{[6-Chloro-3-methoxy-2′-trifluoromethyl-[1,1′-biphenyl]-4-yl]carbonyl}-N-methyl-N-(pyridin-3-ylmethyl)-10,11-dihydro-5H-pyrrolo[2,1-c][1,4]benzodiazepine-3-carboxamide]"
67,–,"Cc1ccccc1-c1ccc(C(=O)N2Cc3ccc(C(=O)NCc4ccncc4)n3Cc3ccccc32)cc1C [Example 89, 10-[(2,2′-Dimethyl-[1,1′-biphenyl]-4-yl)carbonyl]-N-(4-pyridinylmethyl)-10,11-dihydro-5H-pyrrolo[2,1-c][1,4]benzodiazepine-3-carboxamide]"
7,–,"COc1cccc(-c2cc(OC)c(C(=O)N3Cc4ccc(C(=O)NCc5ccncc5)n4Cc4ccccc43)cc2Cl)c1 [Example 95, 10-[(6-Chloro-3,3′-dimethoxy-[1,1′-biphenyl]-4-yl)carbonyl]-N-(4-pyridinylmethyl)-10,11-dihydro-5H-pyrrolo[2,1-c][1,4]benzodiazepine-3-carboxamide]"
–,10.8,"COc1ccccc1-c1ccc(C(=O)N2Cc3ccc(C(=O)N4CCN(c5ccncc5)CC4)n3Cc3ccccc32)cc1C [Example 113, {10-[(2′-Methoxy-2-methyl-[1,1′-biphenyl]-4-yl)carbonyl]-10,11-dihydro-5H-pyrrolo[2,1-c][1,4]benzodiazepin-3-yl}[4-(4-pyridinyl)-1-piperazinyl]methanone]"
95,–,"COc1ccccc1-c1ccc(C(=O)N2Cc3ccc(C(=O)N(C)CCc4ccccn4)n3Cc3ccccc32)cc1C [Example 65, 10-[(2′-Methoxy-2-methyl-[1,1′-biphenyl]-4-yl)carbonyl]-N-methyl-N-[2-(2-pyridinyl)ethyl]-10,11-dihydro-5H-pyrrolo[2,1-c][1,4]benzodiazepine-3-carboxamide]"
44,–,"COc1ccccc1-c1ccc(C(=O)N2Cc3ccc(C(=O)NCc4ccncc4)n3Cc3ccccc32)cc1 [Example 91, 10-[(2′-Methoxy-[1,1′-biphenyl]-4-yl)carbonyl]-N-(4-pyridinylmethyl)-10,11-dihydro-5H-pyrrolo[2,1-c][1,4]benzodiazepine-3-carboxamide]"
50,–,"COc1cc(-c2ccccc2C)c(Cl)cc1C(=O)N1Cc2ccc(C(=O)N3CCN(c4ccccn4)CC3)n2Cc2ccccc21 [Example 81, {10-[(6-Chloro-3-methoxy-2′-methyl-[1,1′-biphenyl]-4-yl)carbonyl]-10,11-dihydro-5H-pyrrolo[2,1-c][1,4]benzodiazepin-3-yl}[4-(2-pyridinyl)-1-piperazinyl]methanone]"
77,–,"COc1cccc(-c2cc(OC)c(C(=O)N3Cc4ccc(C(=O)N(C)CCc5ccccn5)n4Cc4ccccc43)cc2Cl)c1 [Example 70, 10-[(6-Chloro-3,3′-dimethoxy-[1,1′-biphenyl]-4-yl)carbonyl]-N-methyl-N-[2-(2-pyridinyl)ethyl]-10,11-dihydro-5H-pyrrolo[2,1-c][1,4]benzodiazepine-3-carboxamide]"
–,4.65,"COc1cc(C(=O)N2Cc3ccc(C(=O)N(C)Cc4ccc[n+]([O-])c4)n3Cc3ccccc32)ccc1-c1ccccc1C(F)(F)F [Example 8, 10-{[2-Methoxy-2′-trifluoromethyl-[1,1′-biphenyl]-4-yl]carbonyl}-N-methyl-N-(1-oxo-pyridin-3-ylmethyl)-10,11-dihydro-5H-pyrrolo[2,1-c][1,4]benzodiazepine-3-carboxamide]"
–,2.44,"Cc1cc(C(=O)N2Cc3ccc(C(=O)N(C)Cc4ccc[n+]([O-])c4)n3Cc3ccccc32)ccc1-c1ccccc1C(F)(F)F [Example 4, N-Methyl-10-{[2-methyl-2′-trifluoromethyl-[1,1′-biphenyl]-4-yl]carbonyl}-N-[(1-oxidopyridin-3-yl)methyl]-10,11-dihydro-5H-pyrrolo[2,1-c][1,4]benzodiazepine-3-carboxamide]"
91,–,"COc1ccccc1-c1ccc(C(=O)N2Cc3ccc(C(=O)N(C)CCc4ccccn4)n3Cc3ccccc32)cc1 [Example 67, 10-[(2′-Methoxy-[1,1′-biphenyl]-4-yl)carbonyl]-N-methyl-N-[2-(2-pyridinyl)ethyl]-10,11-dihydro-5H-pyrrolo[2,1-c][1,4]benzodiazepine-3-carboxamide]"
99,–,"COc1ccccc1-c1ccc(C(=O)N2Cc3ccc(C(=O)N(C)Cc4cccnc4)n3Cc3ccccc32)cc1 [Example 104, 10-[(2′-Methoxy-[1,1′-biphenyl]-4-yl)carbonyl]-N-methyl-N-(3-pyridinylmethyl)-10,11-dihydro-5H-pyrrolo[2,1-c][1,4]benzodiazepine-3-carboxamide]"
–,5.08,"COc1cc(-c2ccccc2C)c(Cl)cc1C(=O)N1Cc2ccc(C(=O)N(C)CCc3ccccn3)n2Cc2ccccc21 [Example 63, 10-[(6-Chloro-3-methoxy-2′-methyl-[1,1′-biphenyl]-4-yl)carbonyl]-N-methyl-N-[2-(2-pyridinyl)ethyl]-10,11-dihydro-5H-pyrrolo[2,1-c][1,4]benzodiazepine-3-carboxamide]"
–,6.25,"COc1ccccc1-c1ccc(C(=O)N2Cc3ccc(C(=O)N(C)Cc4cccnc4)n3Cc3ccccc32)cc1OC [Example 103, 10-[(2,2′-Dimethoxy-[1,1′-biphenyl]-4-yl)carbonyl]-N-methyl-N-(3-pyridinylmethyl)-10,11-dihydro-5H-pyrrolo[2,1-c][1,4]benzodiazepine-3-carboxamide]"
13,–,"O=C(NCc1ccncc1)c1ccc2n1Cc1ccccc1N(C(=O)c1ccc(-c3cccc4ccccc34)cc1Cl)C2 [Example 99, 10-[2-Chloro-4-(naphthalen-1-yl)benzoyl]-N-(4-pyridinylmethyl)-10,11-dihydro-5H-pyrrolo[2,1-c][1,4]benzodiazepine-3-carboxamide]"
21,–,"COc1cccc(-c2ccc(C(=O)N3Cc4ccc(C(=O)N5CCN(c6ccccn6)CC5)n4Cc4ccccc43)cc2C)c1 [Example 77, {10-[(3′-Methoxy-2-methyl-[1,1′-biphenyl]-4-yl)carbonyl]-10,11-dihydro-5H-pyrrolo[2,1-c][1,4]benzodiazepin-3-yl}[4-(2-pyridinyl)-1-piperazinyl]methanone]"
69,–,"COc1cc(C(=O)N2Cc3ccc(C(=O)NCc4ccncc4)n3Cc3ccccc32)ccc1-c1ccccc1C [Example 93, 10-[(2-Methoxy-2′-methyl-[1,1′-biphenyl]-4-yl)carbonyl]-N-(4-pyridinylmethyl)-10,11-dihydro-5H-pyrrolo[2,1-c][1,4]benzodiazepine-3-carboxamide]"
91,–,"Cc1cc(C(=O)N2Cc3ccc(C(=O)N(C)CCc4ccccn4)n3Cc3ccccc32)ccc1-c1ccccc1C(F)(F)F [Example 74, N-Methyl-10-{[2-methyl-2′-trifluoromethyl-[1,1′-biphenyl]-4-yl]carbonyl}-N-[2-(2-pyridinyl)ethyl]-10,11-dihydro-5H-pyrrolo[2,1-c][1,4]benzodiazepine-3-carboxamide]"
52,–,"Cc1cc(C(=O)N2Cc3ccc(C(=O)N4CCN(c5ccccn5)CC4)n3Cc3ccccc32)ccc1-c1ccccc1C(F)(F)F [Example 87, (10-{[2-Methyl-2′-trifluoromethyl-[1,1′-biphenyl]-4-yl]carbonyl}-10,11-dihydro-5H-pyrrolo[2,1-c][1,4]benzodiazepin-3-yl)[4-(2-pyridinyl)-1-piperazinyl]methanone]"
93,–,"Cc1ccccc1-c1ccc(C(=O)N2Cc3ccc(C(=O)N(C)CCc4ccccn4)n3Cc3ccccc32)cc1 [Example 68, N-Methyl-10-[(2′-methyl-[1,1′-biphenyl]-4-yl)carbonyl]-N-[2-(2-pyridinyl)ethyl]-10,11-dihydro-5H-pyrrolo[2,1-c][1,4]benzodiazepine-3-carboxamide]"

# Source: patent publication US7064120B2, “Tricyclic pyridyl carboxamides and derivatives thereof tocolytic oxytocin receptor antagonists” (Wyeth, priority 2001, dated 2006)
